Data as given in US20220362267A1, “CAPACITATIVE CALCIUM ENTRY INHIBITORS” (UNIVERSITÉ PARIS-SACLAY, priority 2019, published 2022).

Experiments:
Orai1-SOCE in leukocytes = settings: cited from earlier work
SOCE of Jurkat T cells = experiment: SOCE inhibition in thapsigargin-treated Jurkat cells (Indo-1 cytosolic calcium); format: cell-based; settings: for Ki: SOCE, compound added 30 s before reintroduction of calcium; for concentration below which only SOCE is inhibited (no effect on SERCA and IP3R): selectivity versus SERCA and IP3R
Procedure: The Jurkat T lymphocyte line was mainly used for characterizing the effect of the molecules on SOCE. The Indo-1 ratiometric probe was used to visualize cytosolic calcium variations. For this, the cells in culture were centrifuged and then resuspended and incubated in PBS (Phosphate Buffered Saline) medium supplemented with 1 mg/ml of albumin and 4 μM of Indo-1-AM for 45 mim at ambient temperature and in the dark.
The SOCE phenomenon was evaluated conventionally. Jurkat cells were placed in calcium-free HBS medium and stimulated with 1 μM of thapsigargin (TG, arrow in FIG. 2A) for 600 s in order to allow calcium release from the ER and SOCC channel opening(=CRAC). The addition of 1 mM of CaCl2 to the medium allows massive calcium ion entry through the SOCCs and an increase in the concentration of cytosolic calcium ([Ca^2+]cyt).
The dose-response curves were established after addition of 2-APB or of an analog thereof 30 seconds before the reintroduction of calcium.

SERCA = experiment: 45Ca2+ loading (SERCA activity) in permeabilized L15 cells; format: biochemical; settings: for Ki: permeabilized cells
Procedure: (§1) To test the selectivity of certain molecules on SOCE compared to IP3R and SERCA, the L15 line stably expressing type 1 IP3R was used. Briefly, the cells were permeabilized with saponin and incubated in the presence of ^45Ca^2+ in a medium containing ATP allowing SERCA activity and Ca' ion entry into the ER. The addition of TG makes it possible to induce release from the ER and therefore to measure the amount of Ca^2+ ions that have left the ER, which is itself directly linked to the SERCA activity. The addition of IP3 allows direct measurement of the amount of Ca' ions leaving the ER by IP3R opening.
(§2) The ^45Ca^2+ loading and IP3-dependent release measurements were carried out on permeabilized cells under one-way conditions.

IP3R = molecular target: T1, IP3R (Mus musculus, UniProt P11881); experiment: IP3-dependent 45Ca2+ release in permeabilized L15 cells; format: biochemical
T1 construct: expressed in transfected cells; host or cells: L15 cell line, permeabilized with saponin
Procedure: as §1, §2

[1] = system: PHA-stimulated Jurkat cells; experiment: TUNEL assay of DNA fragmentation in PHA-stimulated Jurkat cells; format: cell-based; settings: concentrations greater than 10 nM
Procedure: The Roche TUNEL kit was used to observe the nuclear DNA fragmentation and therefore cell apoptosis.
(§3) The caspase-3 activity was then evaluated by means of an Ac-DEVD-AFC fluorogenic substrate, and apoptosis was evaluated by means of a TUNEL assay.

Jurkat cells = experiment: Cell death of Jurkat cells; format: cell-based
[2] = system: caspase-3 activity of Jurkat cells; experiment: Caspase-3 activity in Jurkat cells (Ac-DEVD-AFC substrate); format: cell-based
Procedure: The caspase-3 activity is measured with a fluorescent kit using the Ac-DEVD-AFC substrate. The Jurkat cells are incubated for 24 h with PHA in the presence or absence of certain molecules. The cells are then lyzed with RIPA medium, and the amounts of proteins are then measured with a commercial kit (Biorad). The cell lysates are then diluted in the following reaction medium: 200 mM Hepes, pH 7.4, 1 mM EDTA, 20% sucrose and 20 mM dithiothreitol, then incubated with 20 μM of the fluorogenic substrate for 45 min […] at 37° C. The appearance of the fluorescent AFC product is measured by spectrofluorimetry (excitation at 405 nm, emission at 505 nm).
as §3

[3] = system: SOCE in U937 cells (monocytes); experiment: SOCE inhibition in U937 cells; format: cell-based; settings: FIG. 3B
Procedure: (§4) The Jurkat T lymphocyte line was mainly used for characterizing the effect of the molecules on SOCE. The Indo-1 ratiometric probe was used to visualize cytosolic calcium variations. For this, the cells in culture were centrifuged and then resuspended and incubated in PBS (Phosphate Buffered Saline) medium supplemented with 1 mg/ml of albumin and 4 μM of Indo-1-AM for 45 mim at ambient temperature and in the dark. The cells were then again centrifuged and resuspended in the HBS (Hepes-Buffered Saline) recording medium having the composition (in mM): 135 mM NaCl, 5.9 mM KCl, 1.2 mM MgCl2, 11.6 mM Hepes, 11.5 mM glucose, pH adjusted to 7.3 with NaOH. 0.5 to 1 million cells are then placed in the cuvette of a Varian Cary Eclipse spectrofluorimeter and the Indo-1 probe is excited at 360 nm, with emission of fluorescence at 405 and 480 nm. The ratio of fluorescence at 405 and 480 nm is directly proportional to the [Ca^2+]cyt.
(§5) The lines of monocyte origin U937, B lymphocyte origin (DG75) and breast cancer origin (MDA-MB231) were also used with the same protocol.

[4] = system: PHA-stimulated Jurkat cells; experiment: IL-2 synthesis by PHA-stimulated Jurkat cells (Elisa); format: cell-based
Procedure: In order to measure the interleukin-2 (IL-2) synthesis in 24 h after stimulation with 10 μg/ml of phytohemagglutinin (PHA) in the presence or absence of certain molecules, the Jurkat cells are centrifuged and the supernatant containing the IL-2 is collected. The 11-2 concentration is measured by Elisa (R&D systems kit).
The concentration of neosynthesized IL-2 was measured in the culture medium of phytohemagglutinin (PHA)-stimulated Jurkat cells after 24 h, in the presence of increasing concentrations of compound P11. […] Conversely, stimulation with PHA allows the detection of approximately 100 pg/ml of IL-2 (103 ±4 pg/ml, FIG. 5A). The addition of increasing concentrations of P11 at the same time as the stimulation by PHA leads to a gradual decrease in IL-2 synthesis to 26±6 pg/ml for 1 μM of P11 (-74%, FIG. 5B).

[5] = system: SOCE in MDA-MB231 cells (hormone-independent breast cancer cells); experiment: SOCE inhibition in MDA-MB231 cells; format: cell-based; settings: FIG. 3B
Procedure: as §4, §5

[6] = system: SOCE in DG75 cells (B lymphocytes); experiment: SOCE inhibition in DG75 cells; format: cell-based
Procedure: as §4, §5

[7] = system: Mn2+ influx via the SOCCs; experiment: Mn2+ quenching of indo-1 in TG-treated Jurkat cells; format: cell-based; settings: 1 μM
Procedure: In order to determine whether compound P11 has an action on SOCE and not on calcium efflux mechanisms, a quenching experiment with Mn^2+ was carried out by means of the indo-1 molecule. The Mn^2+ ions enter the cells via the SOCCs, but cannot be pumped into the extracellular membrane by the plasma membrane calcium-dependent ATPases (plasma membrane Ca^2+ ATPases, or PMCA) or the sodium/calcium exchanger (Na^+/Ca^2+ exchanger, or NCX) or sent back into the lumen of the ER by the sarcoplasmic-endoplasmic reticulum Ca^2+ ATPases (or SERCAs). Once in the cell, Mn^2+ binds to indo-1 and quenches its fluorescence measured at 430 nm. An increase in the amplitude of the Mn^2+ influx is therefore associated with an increase in the indo-1 quenching rate, and vice versa.
After 10 minutes of treatment with TG in order to open the SOCCs, 100 μM of MnCl2 were added. A degree of quenching of −0.89±0.05% Fo/s was observed (FIG. 3A). In the presence of increasing concentrations of P11 added 30 seconds before the addition of Mn^2+ ions, the degree of quenching decreased and reached a blocking of approximately 90% at 1 μM (−0.09±0.01, FIG. 3A).

[8] = PHA, increasing amounts of P11, FIG. 5C

T1 sequence (P11881 whole entry): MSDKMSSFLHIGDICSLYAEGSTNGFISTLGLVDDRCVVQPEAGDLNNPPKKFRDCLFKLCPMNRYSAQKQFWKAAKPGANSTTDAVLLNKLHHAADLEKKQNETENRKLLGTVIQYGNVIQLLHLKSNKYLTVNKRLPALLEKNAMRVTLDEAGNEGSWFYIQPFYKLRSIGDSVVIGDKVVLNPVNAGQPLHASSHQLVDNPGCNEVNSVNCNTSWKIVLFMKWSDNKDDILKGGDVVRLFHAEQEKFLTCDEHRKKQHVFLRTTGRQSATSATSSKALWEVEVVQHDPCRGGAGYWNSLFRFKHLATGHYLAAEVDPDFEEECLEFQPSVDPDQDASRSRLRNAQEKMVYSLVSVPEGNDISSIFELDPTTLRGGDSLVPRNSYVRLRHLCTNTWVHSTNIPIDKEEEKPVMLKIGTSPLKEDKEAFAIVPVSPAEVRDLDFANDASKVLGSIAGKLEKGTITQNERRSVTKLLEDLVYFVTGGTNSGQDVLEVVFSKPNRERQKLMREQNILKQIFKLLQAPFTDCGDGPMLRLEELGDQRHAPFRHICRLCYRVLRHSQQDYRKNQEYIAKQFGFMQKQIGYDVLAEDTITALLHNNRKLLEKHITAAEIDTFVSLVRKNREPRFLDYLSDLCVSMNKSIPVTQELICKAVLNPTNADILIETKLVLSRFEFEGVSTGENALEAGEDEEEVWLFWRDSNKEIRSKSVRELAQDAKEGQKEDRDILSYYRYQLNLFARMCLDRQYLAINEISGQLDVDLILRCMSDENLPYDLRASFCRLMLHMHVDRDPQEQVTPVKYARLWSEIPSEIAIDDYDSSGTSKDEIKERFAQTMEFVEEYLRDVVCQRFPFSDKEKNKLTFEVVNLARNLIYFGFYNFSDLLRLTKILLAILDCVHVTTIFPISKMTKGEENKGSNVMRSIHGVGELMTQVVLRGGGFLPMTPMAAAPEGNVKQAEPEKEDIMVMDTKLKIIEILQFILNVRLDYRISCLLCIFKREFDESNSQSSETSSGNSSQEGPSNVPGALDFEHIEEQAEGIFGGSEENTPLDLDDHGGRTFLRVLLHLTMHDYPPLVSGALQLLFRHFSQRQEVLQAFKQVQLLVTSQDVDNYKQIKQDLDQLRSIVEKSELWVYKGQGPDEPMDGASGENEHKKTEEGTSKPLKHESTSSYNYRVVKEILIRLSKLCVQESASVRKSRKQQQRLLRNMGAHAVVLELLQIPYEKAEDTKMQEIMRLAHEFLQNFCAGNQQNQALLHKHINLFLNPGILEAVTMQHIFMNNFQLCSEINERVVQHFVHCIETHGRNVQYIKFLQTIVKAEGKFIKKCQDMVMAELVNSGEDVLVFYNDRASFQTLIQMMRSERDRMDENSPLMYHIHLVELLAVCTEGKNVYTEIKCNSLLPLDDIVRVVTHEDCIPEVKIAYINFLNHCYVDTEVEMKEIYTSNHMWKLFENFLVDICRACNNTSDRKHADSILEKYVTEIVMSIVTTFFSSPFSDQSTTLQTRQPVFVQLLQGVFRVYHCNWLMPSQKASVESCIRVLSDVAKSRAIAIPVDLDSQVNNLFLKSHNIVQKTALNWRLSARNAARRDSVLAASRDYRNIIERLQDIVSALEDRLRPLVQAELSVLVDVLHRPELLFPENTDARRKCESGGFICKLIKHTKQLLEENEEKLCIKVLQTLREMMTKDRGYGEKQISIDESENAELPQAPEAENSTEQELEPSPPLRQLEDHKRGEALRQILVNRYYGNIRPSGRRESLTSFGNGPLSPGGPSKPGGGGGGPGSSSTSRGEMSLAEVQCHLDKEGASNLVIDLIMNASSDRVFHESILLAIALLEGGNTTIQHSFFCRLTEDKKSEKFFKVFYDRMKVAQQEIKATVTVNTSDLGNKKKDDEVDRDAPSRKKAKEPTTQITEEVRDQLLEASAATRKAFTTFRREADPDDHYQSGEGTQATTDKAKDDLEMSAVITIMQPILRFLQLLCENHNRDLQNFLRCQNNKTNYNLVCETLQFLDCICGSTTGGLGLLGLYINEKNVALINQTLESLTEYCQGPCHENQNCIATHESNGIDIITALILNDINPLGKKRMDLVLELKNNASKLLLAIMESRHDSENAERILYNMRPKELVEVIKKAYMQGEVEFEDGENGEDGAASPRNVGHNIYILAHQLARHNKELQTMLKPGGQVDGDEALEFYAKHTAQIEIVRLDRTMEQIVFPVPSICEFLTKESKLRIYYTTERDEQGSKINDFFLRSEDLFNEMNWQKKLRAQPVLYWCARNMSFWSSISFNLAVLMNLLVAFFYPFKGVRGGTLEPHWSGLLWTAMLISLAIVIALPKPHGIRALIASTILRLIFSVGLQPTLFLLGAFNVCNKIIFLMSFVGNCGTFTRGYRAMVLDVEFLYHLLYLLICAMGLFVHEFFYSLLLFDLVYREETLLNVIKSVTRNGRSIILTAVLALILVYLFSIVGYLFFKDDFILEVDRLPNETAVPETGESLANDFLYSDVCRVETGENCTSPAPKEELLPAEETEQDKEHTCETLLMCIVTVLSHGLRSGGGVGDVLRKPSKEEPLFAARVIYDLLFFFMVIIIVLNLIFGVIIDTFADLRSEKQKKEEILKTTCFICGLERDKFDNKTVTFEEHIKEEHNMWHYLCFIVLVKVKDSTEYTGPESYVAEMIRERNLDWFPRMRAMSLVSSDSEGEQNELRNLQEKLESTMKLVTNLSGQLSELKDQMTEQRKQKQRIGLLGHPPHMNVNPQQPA

NCCOB(c1ccccc1)c1ccccc1 [Compound 2-APB, 2-Aminoethoxydiphenyl borate, reference compound]
concentration at which Orai1-SOCE is inhibited (Orai1-SOCE in leukocytes): greater than 30 μM | effect on calcium entry at 5 μM (SOCE of Jurkat T cells; Jurkat cells, 5 μM, FIG. 2A): high potentiation of calcium entry | effect on calcium entry at 50 μM (SOCE of Jurkat T cells; Jurkat cells, 50 μM, FIG. 2A): virtually total inhibition

COc1ccc(B(OCCN)c2ccc(OC)cc2)cc1 [Compound P2]
Ki (SOCE of Jurkat T cells; Jurkat cells): 3500 ± 650 nM

Cc1ccc(B(OCCN)c2ccc(C)cc2)cc1 [Compound P3]
Ki (SOCE of Jurkat T cells; Jurkat cells): 3500 ± 600 nM

COc1cccc(B(OCCN)c2cccc(OC)c2)c1 [Compound P4]
maximum inhibition of SOCE (SOCE of Jurkat T cells; Jurkat cells): 80% | Ki (SOCE of Jurkat T cells; Jurkat cells): 75000 ± 21000 nM

Cc1cccc(B(OCCN)c2cccc(C)c2)c1 [Compound P5]
Ki (SOCE of Jurkat T cells; Jurkat cells): 2100 ± 600 nM

Cc1ccc(B(OCCN)c2ccc(C)c(C)c2)cc1C [Compound P7]
Ki (SOCE of Jurkat T cells; Jurkat cells): 751 ± 97 nM

CC(C)(C)c1ccc(B(OCCN)c2ccc(C(C)(C)C)cc2)cc1 [Compound P8]
Ki (SOCE of Jurkat T cells; Jurkat cells): 350 ± 40 nM

CC(C)(C)c1ccc(B(OCCN)c2ccc(C(C)(C)C)cc2)cc1 [Compound P9]
Ki (SERCA): 6000 ± 300 nM | Ki (SOCE of Jurkat T cells; Jurkat cells): 641 ± 103 nM | concentration below which only SOCE is inhibited (no effect on SERCA and IP3R) (SOCE of Jurkat T cells): Below 3 μM | inhibition of IP3R activity (in words) (IP3R; FIG. 4): did not significantly inhibit

NCCOB(c1ccc(-c2ccccc2)cc1)c1ccc(-c2ccccc2)cc1 [Compound P11, 2-(dibiphenyl-4-ylboryloxy)ethamine]
cells containing fragmented DNA [1]: 17.9±1.2% | fold increase in number of cells containing fragmented DNA [1]: 4.5 fold | percentage of dead cells (Jurkat cells; 1 μM combined with PHA): 33.2±1.3% | toxic effect on the cells, compound alone (Jurkat cells; without PHA): did not exhibit any toxic effect | caspase-3 activity ([2]; 1 μM with PHA, 24 h): 3332±113 AU | increase of caspase-3 activity (factor) ([2]; with PHA, from 10 nM, maximum effect): 3 | caspase-3 activity, compound alone ([2]; without PHA, up to 1 μM): does not induce an increase in caspase-3 activity | ratio Ki SERCA versus Ki SOCE (SERCA; SERCA 7.4 μM vs SOCE 75 nM): 100 times | inhibition of SERCA (SERCA; concentration greater than 30 μM): 89% | Ki (SERCA): 7400 nM | Ki [3]: 40 ± 5 nM | Ki (SOCE of Jurkat T cells; Jurkat cells): 75 ± 21 nM | concentration below which only SOCE is inhibited (no effect on SERCA and IP3R) (SOCE of Jurkat T cells): less than 1 μM | IL-2 concentration in culture medium ([4]; 1 μM with 10 μg/ml PHA, 24 h): 26 ± 6 pg/mL | change in IL-2 synthesis ([4]; 1 μM with PHA, 24 h): -74% | IL-2 synthesized by the remaining living cells [4, 8]: 39.2 ± 8.6 pg/mL | decrease of IL-2 synthesis capacity of remaining living cells [4, 8]: approximately 63% | Ki [5]: 50 ± 5 nM | Ki ([6]; DG75 cells (B lymphocytes), FIG. 3B): 32 ± 2 nM | concentration at which total inhibition of SOCE is achieved ([6]; FIG. 3B (other cell types: DG75, U937, MDA-MB231)): 100 nM | inhibition at 100 µM (IP3R; 100 μM): 29 ± 9% | blocking of Mn2+ quenching [7]: approximately 90% | degree of indo-1 quenching by Mn2+ ([7]; added 30 s before 100 μM MnCl2, after 10 min TG): −0.09±0.01 % Fo/s

NCCOB(c1ccc(Cl)cc1)c1ccc(Cl)cc1 [Compound P13]
Ki (SOCE of Jurkat T cells; Jurkat cells): 1840 ± 100 nM

NCCOB(c1ccc(F)cc1)c1ccc(F)cc1 [Compound P14]
Ki (SOCE of Jurkat T cells; Jurkat cells): 5400 ± 300 nM

Cc1ccc(B(OCCN)c2ccc(C)c(Cl)c2)cc1Cl [Compound P15]
Ki (SOCE of Jurkat T cells; Jurkat cells): 294 ± 74 nM
